Where “and” joins values, the source holds several entries; their conditions need not be identical. Identical values can stand only once. Inconclusive results and toxic doses are left out. No stated cut-off is given here; in the data, active means T/C of 150% or more; inactive means T/C below 125%.
Test system: L1210 leukemia ip in BDF1 mice, survival T/C
Assay: NCI In Vivo Anticancer Drug Screen. Data for tumor model L1210 Leukemia (intraperitoneal) in B6D2F1 (BDF1) mice
Settings: endpoint: mean survival time, higher = longer survival
How it was run: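 Transplantable tumor model; survival measured in treated vs vehicle control mice. Value = treated/control.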

[1] = dose: 100.0 mg/kg/injection, schedule: Q04DX003 (ip), vehicle: Klucel (hydroxypropylcellulose) (HPC)
[2] = dose: 200.0 mg/kg/injection, schedule: Q04DX003 (ip), vehicle: Klucel (hydroxypropylcellulose) (HPC)
[3] = dose: 400.0 mg/kg/injection, schedule: Q04DX003 (ip), vehicle: Klucel (hydroxypropylcellulose) (HPC)
[4] = dose: 100.0 mg/kg/injection, schedule: Q04DX002 (ip), vehicle: Klucel (hydroxypropylcellulose) (HPC)
[5] = dose: 200.0 mg/kg/injection, schedule: Q04DX002 (ip), vehicle: Klucel (hydroxypropylcellulose) (HPC)
[6] = dose: 400.0 mg/kg/injection, schedule: Q04DX002 (ip), vehicle: Klucel (hydroxypropylcellulose) (HPC)
[7] = dose: 100.0 mg/kg/injection, schedule: Q01DX009 (ip), vehicle: Klucel (hydroxypropylcellulose) (HPC)
[8] = dose: 200.0 mg/kg/injection, schedule: Q01DX009 (ip), vehicle: Klucel (hydroxypropylcellulose) (HPC)
[9] = dose: 100.0 mg/kg/injection, schedule: Q01DX009 (ip), vehicle: saline
[10] = dose: 200.0 mg/kg/injection, schedule: Q01DX009 (ip), vehicle: saline
[11] = dose: 100.0 mg/kg/injection, schedule: Q01DX001 (ip), vehicle: saline
[12] = dose: 200.0 mg/kg/injection, schedule: Q01DX001 (ip), vehicle: saline
[13] = dose: 400.0 mg/kg/injection, schedule: Q01DX001 (ip), vehicle: saline

Measured: T/C

O=C(/C=C/C(=O)Nc1cccc(C2=NCCN2)c1)Nc1cccc(C2=NCCN2)c1
inactive: dose: 3.75 mg/kg/injection, schedule: Q01DX Z (ip), vehicle: carboxymethylcellulose (CMC) 94 % of control | dose: 7.5 mg/kg/injection, schedule: Q01DX Z (ip), vehicle: carboxymethylcellulose (CMC) 94 % of control | dose: 15.0 mg/kg/injection, schedule: Q01DX Z (ip), vehicle: carboxymethylcellulose (CMC) 94 % of control

O=c1ccn(CCC(COCc2ccccc2)COCc2ccccc2)c(=O)[nH]1
inactive: [1] 96 % of control | [2] 101 % of control | [3] 101 % of control

CN(Cc1cccc(Cl)c1)C(=O)NC(C)(C)C
inactive: [4] 100 % of control | [5] 96 % of control | [6] 100 % of control

Cc1cccc(C)c1NC(=O)Oc1c(C)cccc1C
inactive: [7] 106 % of control | [1] 102 % of control | [8] 101 % of control | [2] 102 % of control | dose: 400.0 mg/kg/injection, schedule: Q01DX009 (ip), vehicle: Klucel (hydroxypropylcellulose) (HPC) 97 % of control | [3] 100 % of control

CCCCS(=O)(=O)CS(=O)(=O)CC
inactive: dose: 100.0 mg/kg/injection, schedule: Q01DX001 (ip), vehicle: saline with Tween-80 98 % of control | dose: 200.0 mg/kg/injection, schedule: Q01DX001 (ip), vehicle: saline with Tween-80 91 % of control | dose: 400.0 mg/kg/injection, schedule: Q01DX001 (ip), vehicle: saline with Tween-80 105 % of control

CCCNC1(C(=O)O)CCCc2ccccc21 (stereo not drawn)
inactive: [1] 100 % of control | [2] 100 % of control | [3] 102 % of control

C=CC12COC(=O)C(=C)C1C1OC(=O)C(=C)C1C(O)C2 (stereo not drawn)
inactive: dose: 2.5 mg/kg/injection, schedule: Q01DX009 (ip), vehicle: saline + alcohol 102 % of control | dose: 4.0 mg/kg/injection, schedule: Q01DX009 (ip), vehicle: saline 104 % of control | dose: 4.0 mg/kg/injection, schedule: Q01DX009 (ip), vehicle: water 103 % of control | dose: 5.0 mg/kg/injection, schedule: Q01DX009 (ip), vehicle: saline + alcohol 110 % of control | dose: 6.0 mg/kg/injection, schedule: Q01DX009 (ip), vehicle: saline 113 % of control | dose: 8.0 mg/kg/injection, schedule: Q01DX009 (ip), vehicle: saline 124 % of control | dose: 8.0 mg/kg/injection, schedule: Q01DX009 (ip), vehicle: water 118 % of control | dose: 10.0 mg/kg/injection, schedule: Q01DX009 (ip), vehicle: saline 111 % of control

COc1ccc(C)cc1NC(=O)NC(=O)c1ccc(Cl)cc1
inactive: dose: 50.0 mg/kg/injection, schedule: Q01DX009 (ip), vehicle: saline with Tween-80 88 % of control | dose: 100.0 mg/kg/injection, schedule: Q01DX009 (ip), vehicle: saline with Tween-80 98 % of control | dose: 200.0 mg/kg/injection, schedule: Q01DX009 (ip), vehicle: saline with Tween-80 95 % of control

O=C(/C=C/c1ccccc1)Sc1ccccc1
inactive: [4] 88 % of control | [5] 88 % of control | [6] 107 % of control

Oc1c2ccccc2cc2cnc3ccccc3c12
inactive: dose: 100.0 mg/kg/injection, schedule: Q01DX001 (ip), vehicle: carboxymethylcellulose (CMC) 107 % of control | dose: 200.0 mg/kg/injection, schedule: Q01DX001 (ip), vehicle: carboxymethylcellulose (CMC) 103 % of control | dose: 400.0 mg/kg/injection, schedule: Q01DX001 (ip), vehicle: carboxymethylcellulose (CMC) 94 % of control

N/N=C(\c1ccccc1)c1ccncc1
inactive: dose: 44.0 mg/kg/injection, schedule: Q01DX Z (ip), vehicle: methylcellulose (MC) 106 % of control | dose: 66.0 mg/kg/injection, schedule: Q01DX Z (ip), vehicle: methylcellulose (MC) 90 % of control | dose: 100.0 mg/kg/injection, schedule: Q01DX Z (ip), vehicle: methylcellulose (MC) 87 % of control

Nc1ccc2c(c1)C(=O)c1ccccc1-2
inactive: dose: 100.0 mg/kg/injection, schedule: Q01DX001 (ip), vehicle: Klucel (hydroxypropylcellulose) (HPC) 88 % of control | dose: 200.0 mg/kg/injection, schedule: Q01DX001 (ip), vehicle: Klucel (hydroxypropylcellulose) (HPC) 95 % of control | dose: 400.0 mg/kg/injection, schedule: Q01DX001 (ip), vehicle: Klucel (hydroxypropylcellulose) (HPC) 97 % of control

c1cc[c]([Ge]([c]2ccccc2)[c]2ccccc2)cc1.c1ccc([Si](c2ccccc2)c2ccccc2)cc1
inactive: dose: 25.6 mg/kg/injection, schedule: Q04DX002 (ip), vehicle: saline with Tween-80 86 % of control | dose: 64.0 mg/kg/injection, schedule: Q04DX002 (ip), vehicle: saline with Tween-80 110 % of control | dose: 160.0 mg/kg/injection, schedule: Q04DX002 (ip), vehicle: saline with Tween-80 100 % of control | dose: 400.0 mg/kg/injection, schedule: Q04DX002 (ip), vehicle: saline with Tween-80 100 % of control

C#CCOP(=O)(OCC)OCC
inactive: [9] 105 % of control | [10] 103 % of control

Cc1[nH]c(=O)[nH]c(=O)c1CN(C)Cc1cc(Cl)cc(Cl)c1O
inactive: dose: 50.0 mg/kg/injection, schedule: Q01DX001 (ip), vehicle: saline 95 % of control | [11] 95 % of control | [12] 95 % of control | [13] 101 % of control

CC(C)=CCNC12CC3CC(CC(C3)C1)C2
inactive: dose: 5.0 mg/kg/injection, schedule: Q01DX001 (ip), vehicle: saline 101 % of control | dose: 10.0 mg/kg/injection, schedule: Q01DX001 (ip), vehicle: saline 106 % of control | dose: 20.0 mg/kg/injection, schedule: Q01DX001 (ip), vehicle: saline 108 % of control | dose: 40.0 mg/kg/injection, schedule: Q01DX001 (ip), vehicle: saline 107 % of control | dose: 80.0 mg/kg/injection, schedule: Q01DX001 (ip), vehicle: saline 104 % of control

COc1ccc(OC)c2[nH]c(=O)c(CCC(=O)O)nc12
inactive: dose: 100.0 mg/kg/injection, schedule: Q04DX003 (ip), vehicle: other 96 % of control | dose: 200.0 mg/kg/injection, schedule: Q04DX003 (ip), vehicle: other 96 % of control

Clc1ccc(/C=N/Nc2c3ccccc3nc3ccccc23)c(Cl)c1
inactive: [11] 92 % of control | [12] 97 % of control | [13] 100 % of control

O=C(CCC[n+]1ccccc1)CC(O)(C(F)(F)F)C(F)(F)F
inactive: dose: 50.0 mg/kg/injection, schedule: Q01DX009 (ip), vehicle: saline 105 % of control | [9] 103 % of control | dose: 100.0 mg/kg/injection, schedule: Q04DX003 (ip), vehicle: saline 103 % of control | [10] 100 % of control | dose: 200.0 mg/kg/injection, schedule: Q04DX003 (ip), vehicle: saline 106 % of control

COc1ccc(OC(=O)Nc2ccc(OC)cc2Cl)cc1
inactive: [4] 96 % of control | [5] 107 % of control | [6] 100 % of control

CCCCCCCN(CCCCCCC)CC(O)c1cc2ccc(Cl)cc2c2cccnc12 (stereo not drawn)
inactive: dose: 50.0 mg/kg/injection, schedule: Q01DX009 (ip), vehicle: Klucel (hydroxypropylcellulose) (HPC) 98 % of control | [7] 96 % of control | [1] 102 % of control | [2] 104 % of control

CCc1c(CC(=O)O)c2cc(C)ccc2n1Cc1ccc(Cl)cc1
inactive: dose: 12.5 mg/kg/injection, schedule: Q01DX Z (ip), vehicle: saline 95 % of control and 96 % of control | dose: 24.0 mg/kg/injection, schedule: Q01DX Z (ip), vehicle: carboxymethylcellulose (CMC) 91 % of control | dose: 25.0 mg/kg/injection, schedule: Q01DX Z (ip), vehicle: saline 103 % of control and 100 % of control | dose: 36.0 mg/kg/injection, schedule: Q01DX Z (ip), vehicle: carboxymethylcellulose (CMC) 92 % of control | dose: 50.0 mg/kg/injection, schedule: Q01DX Z (ip), vehicle: saline 113 % of control and 102 % of control | dose: 54.0 mg/kg/injection, schedule: Q01DX Z (ip), vehicle: carboxymethylcellulose (CMC) 95 % of control | dose: 100.0 mg/kg/injection, schedule: Q01DX Z (ip), vehicle: saline 95 % of control and 93 % of control | dose: 162.0 mg/kg/injection, schedule: Q01DX Z (ip), vehicle: carboxymethylcellulose (CMC) 94 % of control | dose: 324.0 mg/kg/injection, schedule: Q01DX Z (ip), vehicle: carboxymethylcellulose (CMC) 88 % of control

O=c1[nH]cnc2c1ncn2Cc1cccc2ccccc12
inactive: [4] 94 % of control | [5] 94 % of control | [6] 94 % of control

Cc1c(NC(=O)CCl)c(=O)n(-c2ccccc2)n1C
inactive: [7] 98 % of control | [1] 100 % of control | [8] 94 % of control | [2] 96 % of control | [3] 95 % of control

Source: PubChem BioAssay AID248 (DTP/NCI, 2004)
